Measured values published in US10696615B2, “Prenylated hydroxystilbenes” (The University of Sydney, priority 2011, dated 2020).

Tests used:
[1] = tested on: UO-31; assay: NCI in vitro cancer screen, Renal Cancer; assay type: cell-based, human; conditions: UO-31; for GI50 / CC50: Homo sapiens; for CC50: read-out: LC50 (the source's name)
[2] = tested on: MCF7; assay: NCI in vitro cancer screen, Breast Cancer; assay type: cell-based, human; conditions: MCF7; for GI50 / CC50: Homo sapiens; for CC50: read-out: LC50 (the source's name)
[3] = tested on: TK-10; assay: NCI in vitro cancer screen, Renal Cancer; assay type: cell-based, human; conditions: TK-10; for GI50 / LC50: Homo sapiens
[4] = tested on: A549/ATCC; assay: NCI in vitro cancer screen, Non-Small Cell Lung Cancer; assay type: cell-based, human; conditions: for GI50 / CC50: Homo sapiens; for CC50: read-out: LC50 (the source's name)
[5] = tested on: SW-620; assay: NCI in vitro cancer screen, Colon Cancer; assay type: cell-based, human; conditions: SW-620; for GI50 / CC50: Homo sapiens; for CC50: read-out: LC50 (the source's name)
[6] = tested on: HS 578T; assay: NCI in vitro cancer screen, Breast Cancer; assay type: cell-based, human; conditions: for GI50 / CC50: Homo sapiens; for CC50: read-out: LC50 (the source's name)
[7] = tested on: SN12C; assay: NCI in vitro cancer screen, Renal Cancer; assay type: cell-based, human; conditions: for GI50 / CC50: Homo sapiens; for CC50: read-out: LC50 (the source's name)
[8] = tested on: A498; assay: NCI in vitro cancer screen, Renal Cancer; assay type: cell-based, human; conditions: A498; for GI50 / CC50: Homo sapiens; for CC50: read-out: LC50 (the source's name)
[9] = tested on: SR; assay: NCI in vitro cancer screen, Leukemia; assay type: cell-based, human; conditions: for GI50 / CC50: Homo sapiens; for CC50: read-out: LC50 (the source's name)
[10] = tested on: UACC-257; assay: NCI in vitro cancer screen, Melanoma; assay type: cell-based, human; conditions: UACC-257; for GI50 / CC50: Homo sapiens; for CC50: read-out: LC50 (the source's name)
[11] = tested on: 786-0; assay: NCI in vitro cancer screen, Renal Cancer; assay type: cell-based, human; conditions: 786-0; for GI50 / LC50 (50% net cell kill): Homo sapiens
[12] = tested on: HL-60 (TB); assay: NCI in vitro cancer screen, Leukemia; assay type: cell-based, human; conditions: HL-60 (TB); for GI50 / CC50: Homo sapiens; for CC50: read-out: LC50 (the source's name)
[13] = tested on: OVCAR-3; assay: NCI in vitro cancer screen, Ovarian Cancer; assay type: cell-based, human; conditions: OVCAR-3; for GI50 / CC50: Homo sapiens; for CC50: read-out: LC50 (the source's name)
[14] = tested on: EKVX; assay: NCI in vitro cancer screen, Non-Small Cell Lung Cancer; assay type: cell-based, human; conditions: for GI50 / CC50: Homo sapiens; for CC50: read-out: LC50 (the source's name)
[15] = tested on: RXF-393; assay: NCI in vitro cancer screen, Renal Cancer; assay type: cell-based, human; conditions: RXF-393; for GI50 / CC50: Homo sapiens; for CC50: read-out: LC50 (the source's name)
[16] = tested on: RPMI-8226; assay: NCI in vitro cancer screen, Leukemia; assay type: cell-based, human; conditions: RPMI-8226; for GI50 / CC50: Homo sapiens; for CC50: read-out: LC50 (the source's name)
[17] = tested on: SNB-75; assay: NCI in vitro cancer screen, CNS Cancer; assay type: cell-based, human; conditions: SNB-75; for GI50 / CC50: Homo sapiens; for CC50: read-out: LC50 (the source's name)
[18] = tested on: MDA-MB-468; assay: NCI in vitro cancer screen, Breast Cancer; assay type: cell-based, human; conditions: MDA-MB-468; for GI50 / CC50: Homo sapiens; for CC50: read-out: LC50 (the source's name)
[19] = tested on: SF-539; assay: NCI in vitro cancer screen, CNS Cancer; assay type: cell-based; conditions: SF-539; for GI50 / CC50: Homo sapiens; for CC50: read-out: LC50 (the source's name)
[20] = tested on: IGROV1; assay: NCI in vitro cancer screen, Ovarian Cancer; assay type: cell-based, human; conditions: IGROV1; for GI50 / CC50: Homo sapiens, IGROV-1; for CC50: read-out: LC50 (the source's name)
[21] = tested on: SF-268; assay: NCI in vitro cancer screen, CNS Cancer; assay type: cell-based, human; conditions: SF-268; for GI50 / CC50: Homo sapiens; for CC50: read-out: LC50 (the source's name)
[22] = tested on: HT29; assay: NCI in vitro cancer screen, Colon Cancer; assay type: cell-based, human; conditions: HT29; for GI50 / CC50: Homo sapiens, HT-29; for CC50: read-out: LC50 (the source's name)
[23] = tested on: SF-295; assay: NCI in vitro cancer screen, CNS Cancer; assay type: cell-based, human; conditions: SF-295; for GI50 / CC50: Homo sapiens; for CC50: read-out: LC50 (the source's name)
[24] = tested on: K-562; assay: NCI in vitro cancer screen, Leukemia; assay type: cell-based, human; conditions: K-562; for GI50 / CC50: Homo sapiens, K562; for CC50: read-out: LC50 (the source's name)
[25] = tested on: HOP-62; assay: NCI in vitro cancer screen, Non-Small Cell Lung Cancer; assay type: cell-based, human; conditions: HOP-62; for GI50 / CC50: Homo sapiens; for CC50: read-out: LC50 (the source's name)
[26] = tested on: T-47D; assay: NCI in vitro cancer screen, Breast Cancer; assay type: cell-based, human; conditions: for GI50 / CC50: Homo sapiens, T47D; for CC50: read-out: LC50 (the source's name)
[27] = tested on: NCI-H226; assay: NCI in vitro cancer screen, Non-Small Cell Lung Cancer; assay type: cell-based, human; conditions: NCI-H226; for GI50 / LC50 (50% lethal concentration): Homo sapiens
[28] = tested on: MDA-MB-435; assay: NCI in vitro cancer screen, Melanoma; assay type: cell-based, human; conditions: MDA-MB-435; for GI50 / CC50: Homo sapiens; for CC50: read-out: LC50 (the source's name)
[29] = tested on: NCI-H322M; assay: NCI in vitro cancer screen, Non-Small Cell Lung Cancer; assay type: cell-based, human; conditions: for GI50 / LC50 (50% lethal concentration): Homo sapiens

COc1cc(/C=C/c2cc(O)c(CC=C(C)C)c(O)c2)ccc1O [USYDS13, (E)-4-(3-methyl-2-buten-1-yl)-3,4′,5-trihydroxy-3′-methoxystilbene]
GI50 [1]: 4.16 µM | CC50 [1]: > 100 µM | TGI [1]: 38.1 µM | GI50 [2]: 0.68 µM | CC50 [2]: 82.7 µM | TGI [2]: 19.9 µM | GI50 [3]: 6.98 µM | LC50 [3]: > 100 µM | TGI [3]: 31.4 µM | TGI [4]: 20.4 µM | GI50 [4]: 4.01 µM | CC50 [4]: > 100 µM | GI50 [5]: 3.98 µM | CC50 [5]: 42.8 µM | TGI [5]: 15.9 µM | TGI [6]: 15.0 µM | GI50 [6]: 2.4 µM | CC50 [6]: > 100 µM | TGI [7]: >100 µM | GI50 [7]: 7.16 µM | CC50 [7]: > 100 µM | TGI [8]: 21.0 µM | GI50 [8]: 3.88 µM | CC50 [8]: 63.5 µM | TGI [9]: >100 µM | GI50 [9]: 2.8 µM | CC50 [9]: > 100 µM | GI50 [10]: 5.35 µM | CC50 [10]: 44 µM | TGI [10]: 18.1 µM | TGI [11]: 24.5 µM | GI50 [11]: 5.24 µM | LC50 (50% net cell kill) [11]: > 100 µM | TGI [12]: 17.1 µM | GI50 [12]: 2.55 µM | CC50 [12]: > 100 µM | GI50 [13]: 7.98 µM | CC50 [13]: > 100 µM | TGI [13]: 39.8 µM | TGI [14]: 54.6 µM | GI50 [14]: 12.8 µM | CC50 [14]: > 100 µM | GI50 [15]: 5.48 µM | CC50 [15]: 46.5 µM | TGI [15]: 18.9 µM | GI50 [16]: 9.05 µM | CC50 [16]: > 100 µM | TGI [16]: 51.6 µM | GI50 [17]: 5.47 µM | CC50 [17]: > 100 µM | TGI [17]: 36.6 µM | GI50 [18]: 1.68 µM | CC50 [18]: > 100 µM | TGI [18]: 7.63 µM | GI50 [19]: 7.32 µM | CC50 [19]: > 100 µM | TGI [19]: 29.9 µM | GI50 [20]: 6.7 µM | CC50 [20]: > 100 µM | TGI [20]: 86.2 µM | GI50 [21]: 6.17 µM | CC50 [21]: > 100 µM | TGI [21]: 32.9 µM | TGI [22]: 36.9 µM | GI50 [22]: 17.8 µM | CC50 [22]: 76.8 µM | GI50 [23]: 5.22 µM | CC50 [23]: 77.5 µM | TGI [23]: 23.5 µM | GI50 [24]: 4.08 µM | CC50 [24]: > 100 µM | TGI [24]: 57.5 µM | TGI [25]: 20.4 µM | GI50 [25]: 5.66 µM | CC50 [25]: 53.7 µM | TGI [26]: 14.7 µM | GI50 [26]: 2.92 µM | CC50 [26]: 70.5 µM | GI50 [27]: 10.9 µM | LC50 (50% lethal concentration) [27]: > 100 µM | TGI [27]: 50.1 µM | GI50 [28]: 3.08 µM | CC50 [28]: > 100 µM | TGI [28]: 15.9 µM | TGI [29]: 28.5 µM | GI50 [29]: 5.9 µM | LC50 (50% lethal concentration) [29]: > 100 µM

COc1cc(/C=C/c2cc(O)cc(OC)c2CC=C(C)C)ccc1O [USYDS1, (E)-2-(3-methyl-2-buten-1-yl)-4′,5-dihydroxy-3,3′-dimethoxystilbene]
GI50 [1]: 0.25 µM | CC50 [1]: 51.3 µM | TGI [1]: 16.0 µM | GI50 [2]: 0.23 µM | CC50 [2]: 52.9 µM | TGI [2]: 13.0 µM | GI50 [3]: 4.1 µM | LC50 [3]: 40.5 µM | TGI [3]: 15.7 µM | TGI [4]: 11.3 µM | GI50 [4]: 0.5 µM | CC50 [4]: 40.3 µM | GI50 [5]: 0.04 µM | CC50 [5]: 44.3 µM | TGI [5]: 15.1 µM | GI50 [6]: 0.02 µM | CC50 [6]: > 100 µM | TGI [7]: 16.9 µM | GI50 [7]: 0.99 µM | CC50 [7]: 54.2 µM | TGI [8]: 8.45 µM | GI50 [8]: 1.84 µM | CC50 [8]: 32.2 µM | TGI [9]: 24.4 µM | GI50 [9]: 0.04 µM | CC50 [9]: > 100 µM | GI50 [10]: 2.53 µM | CC50 [10]: 45.4 µM | TGI [10]: 17.7 µM | TGI [11]: 14.0 µM | GI50 [11]: 0.48 µM | LC50 (50% net cell kill) [11]: > 100 µM | TGI [12]: 0.06 µM | GI50 [12]: 0.02 µM | CC50 [12]: 68.9 µM | GI50 [13]: 0.26 µM | CC50 [13]: 37.3 µM | TGI [14]: 24.3 µM | GI50 [14]: 10.8 µM | CC50 [14]: 54.4 µM | GI50 [15]: 0.03 µM | CC50 [15]: 39.1 µM | GI50 [16]: 0.11 µM | CC50 [16]: > 100 µM | TGI [16]: 14.8 µM | GI50 [17]: 0.03 µM | CC50 [17]: 72 µM | TGI [17]: 20.2 µM | GI50 [18]: 0.36 µM | CC50 [18]: 33.2 µM | TGI [18]: 8.37 µM | GI50 [19]: 0.04 µM | CC50 [19]: 48.6 µM | TGI [19]: 14.4 µM | GI50 [20]: 2.65 µM | CC50 [20]: > 100 µM | TGI [20]: 27.9 µM | GI50 [21]: 0.25 µM | CC50 [21]: 50.2 µM | TGI [21]: 14.1 µM | TGI [22]: 15.3 µM | GI50 [22]: 4.73 µM | CC50 [22]: 44.4 µM | GI50 [23]: 0.65 µM | CC50 [23]: 55.7 µM | TGI [23]: 16.2 µM | GI50 [24]: 0.04 µM | CC50 [24]: > 100 µM | TGI [24]: 11.7 µM | TGI [25]: 16.0 µM | GI50 [25]: 0.44 µM | CC50 [25]: 42.2 µM | TGI [26]: 19.8 µM | GI50 [26]: 0.72 µM | CC50 [26]: 67.4 µM | GI50 [27]: 3.13 µM | LC50 (50% lethal concentration) [27]: 45.6 µM | TGI [27]: 13.3 µM | GI50 [28]: 0.03 µM | CC50 [28]: 43 µM | TGI [28]: 13.8 µM | TGI [29]: 25.7 µM | GI50 [29]: 11.8 µM | LC50 (50% lethal concentration) [29]: 55.9 µM
